Results: a melting point compilation (Tetko et al.; mined from patent text by program, amines drawn as free bases though some values may be those of a salt)

First: O=C(O)c1cccc2c1CCc1cc(O)ccc1S2
Second: COc1ccc(C(=O)c2ccccc2)c([N+](=O)[O-])c1O
The melting point of the first is higher: 210 to 211 °C for the first, 137 to 139 °C for the second.

First: Cc1ncsc1C(O)c1cccc(N)c1 (stereo unspecified)
Second: Nc1cccc2c(=O)[nH]ncc12
The melting point of the first is lower: 137 to 138 °C for the first, 289 to 291 °C for the second.

Going from `Cn1c(C(F)(F)F)cc(=O)n(Nc2cccc(Cl)c2Cl)c1=O` to `CC(=O)NC1=C(c2cccc(C(F)(F)F)c2)C(=O)OC1`, the melting point falls from 179 °C to 140 °C.

Compared with `CCOC(=O)C1CCCCN1C(=O)Nc1cc(C(=O)OC(C)C)c(Cl)cc1F` (stereo unspecified), `CCOC(=O)CCn1cc(CN(C)C)n(C2CCc3ccccc3C2)c1=S` (stereo unspecified) is higher in melting point: 83 to 85 °C for the first, 128 to 130 °C for the second.

First: Cc1cc2c(-c3cccc(N)c3)c(CC(=O)Nc3ccc(Cl)cc3C(F)(F)F)c(=O)oc2cc1Cl
Second: CC(=O)Nc1c(C(=O)c2occc2CO)[nH]c2cc(Cl)ccc12
The melting point of the first is higher: 206 to 207 °C for the first, 196 to 198 °C for the second.

First: CC(CCc1c[nH]c2c(F)cc(F)cc12)N(CC1CC1)C1COc2c(F)ccc(C(N)=O)c2C1 (stereo unspecified)
Second: CS(=O)(=O)c1c(CC(=O)O)n(Cc2ccc(Cl)cc2)c2ccc(F)cc12
The melting point of the first is lower: 175 to 180 °C for the first, 202 °C for the second.

Compared with `CC(O)C1CCC(CNC(=O)OCc2ccccc2)CC1` (stereo unspecified), `Cc1c(OCCNC(=O)OC(C)(C)C)noc1-c1ccccc1` is higher in melting point: 83 to 84 °C for the first, 118 to 120 °C for the second.

Compared with `CS(=O)(=O)c1ccc(-n2cc(C(F)(F)F)nc2-c2ccc(-c3cscn3)cc2)cc1F`, `Cc1cc2ncc(C(=O)O)c(N(C)S(=O)(=O)c3ccc(Oc4ccncc4)cc3)n2n1` is higher in melting point: 112 to 115 °C for the first, 246 to 248 °C for the second.

First: N#CC(=NO)c1cccs1
Second: Cc1nn(C(C)C)cc1C(=O)NC(C#N)c1cccs1 (stereo unspecified)
The melting point of the first is lower: 103 to 104 °C for the first, 140 to 142 °C for the second.

First: COC(=O)CCCc1cc2nc(Cl)ccc2n1S(=O)(=O)c1cccc2nccnc12
Second: CC(C)CCC(=O)OC1c2ccccc2C(=O)N1c1ccc2ccc(F)nc2n1 (stereo unspecified)
The melting point of the first is lower: 71 °C for the first, 154 °C for the second.

First: Cc1cn(C(=O)OC(C)(C)C)c2ccc(Br)cc12
Second: COc1cc(CC(=O)NCCOc2ccc(C)c(C)c2)ccc1OCCN
The melting point of the first is lower: 92 °C for the first, 95 to 97 °C for the second.

Compared with `CCC(=O)Oc1ccc(C#N)cc1`, `Nc1ncc(C#Cc2ccc(Cl)cc2)c(Oc2ccc(O)cc2)n1` is higher in melting point: 44 to 46 °C for the first, 250 to 251 °C for the second.

First: COc1ccc(C(=O)NCCCCCCCCCCNC(=O)c2ccc(OC)cc2)cc1
Second: COc1ccc(N2CCN(Cc3coc4c(OC)cccc34)CC2)cc1
The melting point of the first is higher: 168 to 170 °C for the first, 126 to 127 °C for the second.

First: COC(=O)C1=C(C)NC(c2sc(C)nc2C)=NC1c1ccc(F)cc1Cl (stereo unspecified)
Second: CNC(=O)c1cc(C(=O)O)c2cc(Cc3ccc(F)cc3)cnc2c1O
The melting point of the first is lower: 116 to 118 °C for the first, 203 to 205 °C for the second.

First: CCc1cc2oc(=O)c(C#N)c(C)c2cc1CC
Second: COc1ccc2c3c(c(=O)oc2c1)CN(Cc1ccccc1)CC3
The melting point of the first is higher: 169 °C for the first, 118 to 120 °C for the second.

`CC(=O)SCC(CC(C)C)C(=O)NC(C)C(=O)O` (stereo unspecified) and `CC(C)=CCCNC(=S)Nc1nc(C)cs1` cannot be ordered by melting point: 157 to 167 °C for the first, 164 to 166 °C for the second.

First: CCO[C@@H](Cc1ccc(OCCc2nc(-c3ccc(-c4ccccc4)cc3)oc2C)c2ccccc12)C(=O)O
Second: CCOC(Cc1ccccc1)=C1SC(=S)N(c2ccccc2)C1=O
The melting point of the first is higher: 140 to 145 °C for the first, 119 to 121 °C for the second.

Compared with `O=C(Nc1ccncc1)c1ccc(OC(F)F)c2oc3ccccc3c12`, `O=C1NCC(Cc2ccccc2Oc2ccccc2)O1` (stereo unspecified) is lower in melting point: 230 °C for the first, 100 to 101 °C for the second.

First: Cc1ccc2c(c1)Oc1cscc1C(=O)N2
Second: CC1(C)CCC(C)(C)c2cc(CC#Cc3ccc(C(=O)NO)c(O)c3)ccc21
The melting point of the first is higher: 209 to 216 °C for the first, 119 to 120 °C for the second.

First: Nc1nc(NC2CCC2)c2ncn(C3C=CC(CO)C3)c2n1 (stereo unspecified)
Second: Oc1cccc2c1CC(NC1CC1)CO2 (stereo unspecified)
The melting point of the first is higher: 181 to 183 °C for the first, 147 to 148 °C for the second.

First: CN(C(=S)c1ccc2nonc2c1)C1CCOCC1
Second: CCCCC[C@@H](CNC(=O)Nc1c(OC(C)C)c(C)nn1C)c1cccc2c1OCO2
The melting point of the first is higher: 174 to 175 °C for the first, 123 to 124 °C for the second.

Going from `Nc1nc2c(N)cc(OC(F)(F)F)cc2s1` to `C#CCCCn1ncc2c(N)c(C(=O)OCC=C)c(C)nc21`, the melting point falls from 206 °C to 99.5 °C.

First: N#CCSc1ncc2ccccn12
Second: N#CCSC(=O)c1ccco1
The melting point of the first is higher: 120 to 122 °C for the first, 76 to 78 °C for the second.

First: CC1(C)CCC(C)(C)C2=C1CC(Cl)C(C)(O)C2 (stereo unspecified)
Second: C=C1CCC2C3CCC4CC(OCOC)CCC4(C)C3CCC12C (stereo unspecified)
The melting point of the first is higher: 122 to 124 °C for the first, 73 to 75 °C for the second.

First: CCC#CCCOc1cc(/C=C/C(=O)Nc2ccccc2C(=O)O)ccc1OC
Second: Cc1cc(C)c(NS(=O)(=O)c2cc(S(=O)(=O)Nc3c(C)cc(C)cc3C)c3cc(O)ccc3c2)c(C)c1
The melting point of the first is higher: 163 to 165 °C for the first, 148 to 150 °C for the second.

For `O=C1OC2CC3CC(C2)OC1O3`, the melting point was 140 to 143 °C.
